# How the values were obtained:
# [1] = 1-octanol-aqueous buffer distribution coefficient, log D of the compound at 0.5 mM at pH 7.4 after 2 hrs by shake flask method; type: physicochemical
# [2] = Cmax in C57Bl/6 DIO mouse at 22 mg/kg, po; type: ADME, organism-based; parameters: dose 22 mg/kg, route oral; conditions: in vivo
# [3] = Oral bioavailability in C57Bl/6 DIO mouse at 22 mg/kg; type: ADME, organism-based; conditions: in vivo
# [4] = Half life in C57Bl/6 DIO mouse at 1 mg/kg, iv; type: ADME, organism-based; parameters: dose 1 mg/kg, route intravenous; conditions: in vivo
# [5] = Volume of distribution at steady state in C57Bl/6 DIO mouse at 1 mg/kg, iv; type: ADME, organism-based; parameters: dose 1 mg/kg, route intravenous; conditions: in vivo, read-out: Vdss
# [6] = Clearance in C57Bl/6 DIO mouse at 1 mg/kg, iv; type: ADME, organism-based; parameters: dose 1 mg/kg, route intravenous; conditions: in vivo
# [7] = Cmax in C57Bl/6 DIO mouse at 30 mg/kg, po; type: ADME, organism-based; parameters: dose 30 mg/kg, route oral; conditions: in vivo
# [8] = Oral bioavailability in C57Bl/6 DIO mouse at 30 mg/kg; type: ADME, organism-based; conditions: in vivo
# [9] = Stability of the compound in aqueous solution assessed as recovery at pH 1 to 10 after 2 hrs; type: physicochemical; conditions: read-out: Drug recovery
# [10] = Oral bioavailability in C57Bl/6 DIO mouse at 49 mg/kg; type: ADME, organism-based; conditions: in vivo
# Plasma = experiment: Plasma concentration in C57Bl/6 DIO mouse at 50 to 100 mg/kg, po; type: ADME, organism-based; parameters: dose 50-100 mg/kg, route oral; conditions: in vivo
# [11] = Oral bioavailability in C57Bl/6 DIO mouse at 23 mg/kg; type: ADME, organism-based; conditions: in vivo
Compound,"logD at 2 h, 500 µM [1]",half-life [4] [h],Vd [5] [L/kg],clearance [6] [mL/min/kg],other results
Cc1cc(/C(CC(c2ccc(Br)cc2)c2ccccc2C)=N/O)ccn1 (stereo not given),> 4,,,,
Cc1ccccc1[C@H](C/C(=N\O)c1ccc(=O)n(C)c1)c1ccc(S(C)(=O)=O)cc1,1.7,2.2,3.3,67,Cmax [2]: 870 ng/mL; bioavailability [3]: 29%
Cc1cc(/C(C[C@@H](c2ccc(N3CCC(C(=O)O)CC3)cc2)c2ccccc2C)=N/O)ccn1,1.6,,,,
Cc1cc(/C(C[C@H](c2ccc(N3CCC(C(=O)O)CC3)cc2)c2ccccc2C)=N/O)ccn1,1.5,1.7,0.4,5,Cmax [7]: 41000 ng/mL; bioavailability [8]: 100%
CN(C)c1ccc(C(C/C(=N\O)c2ccncc2)c2ccccc2)cc1 (stereo not given),3.4,,,,remaining at 2 h [9]: > 90%
Cc1ccccc1[C@H](C/C(=N\O)c1ccc(=O)n(C)c1)c1ccc(-c2ccc(C(=O)O)cc2)cc1,1.3,0.7,0.5,5,bioavailability [10]: 67%
Cc1ccccc1[C@@H](C/C(=N\O)c1ccc(=O)n(C)c1)c1ccc(-c2ccc(C(=O)O)cc2)cc1,1.5,,,,
Cc1cc(/C(C[C@H](c2ccc(-c3ccc(C(=O)O)cc3)cc2)c2ccccc2C)=N/O)ccn1,2.7,0.3,0.5,15,Cp (Plasma): 31500 ng/mL; bioavailability [11]: 80%
Cc1ccccc1[C@@H](C/C(=N\O)c1ccc(=O)n(C)c1)c1ccc(S(C)(=O)=O)cc1,1.9,,,,
Cc1cc(/C(C[C@@H](c2ccc(-c3ccc(C(=O)O)cc3)cc2)c2ccccc2C)=N/O)ccn1,2.7,,,,
